Results as given in patent US5481013A, “Carboxylic acid derivatives” (Ciba-Geigy Corporation, priority 1992, dated 1996).

Legend:
Format in all cases: in vivo
Ctenocephalides felis = experiment: Activity against Ctenocephalides felis; conditions: 504 h, 100 ppm in flea larvae nutrient medium, flea eggs, checked after 21 days
Method: 20 to 25 flea eggs are placed into a horizontally positioned 50 ml tissue culture flask into which 15 g of flea larvae nutrient medium comprising 100 ppm of the active ingredient to be tested have previously been introduced. The test flasks are incubated in an incubator at 26° to 27° C. and an atmospheric humidity of 60-70%. After 21 days, the flasks are checked for the presence of adult fleas, unhatched pupae and larvae.

Dermanyssus gallinae = experiment: Activity against Dermanyssus gallinae; conditions: 72 h, 10 ppm solution, mites in different development stages, after 3 days
Method: 2 to 3 ml of a solution comprising 10 ppm of active ingredient and approximately 200 mites in different development stages are placed into a glass container which is open at the top. The container is then sealed with a cottonwool ball, shaken for 10 minutes until the mites are wetted completely, and then briefly turned over so that the remaining test solution can be absorbed by the cottonwool. After 3 days, the mortality of the mites is determined by counting the dead individuals; it is given as a percentage.

Tetranychus urticae = experiment: Activity against Tetranychus urticae; conditions: 144 h, 400 ppm spray on young bean plants, mixed population, 6 days at 25° C, read-out: percentage reduction in population (% activity)
Method: Young bean plants are populated with a mixed population of Tetranychus urticae and, after 1 day, sprayed with a spray mixture prepared with an aqueous emulsion and comprising 400 ppm of the active ingredient. The plants are subsequently incubated for 6 days at 25° C and then evaluated. The percentage reduction in population (% activity) is determined by comparing the number of dead eggs, larvae and adults on the treated plants with those on the untreated ones.

Heliothis virescens = experiment: Ovicidal/larvicidal activity on Heliothis virescens; conditions: 192 h, 400 ppm spray on eggs deposited on cotton, evaluated after 8 days, read-out: % reduction in population (hatching percentage of eggs and survival rate of caterpillars)
Method: Heliothis eggs which have been deposited on cotton are sprayed with a spray mixture prepared with an aqueous emulsion and comprising 400 ppm of the active ingredient. After 8 days, the hatching percentage of the eggs and the survival rate of the caterpillars are evaluated by comparing them with untreated control batches (% reduction in population).

Nephotettix cincticeps = experiment: Systemic activity against Nephotettix cincticeps; conditions: 144 h, pots with rice plants in 400 ppm aqueous emulsion solution, larvae in stages 2 and 3, evaluated after 6 days, read-out: percentage reduction in population (% activity)
Method: Pots containing rice plants are placed into an aqueous emulsion solution comprising 400 ppm of the active ingredient. The rice plants are subsequently populated with larvae in stages 2 and 3. The test is evaluated after 6 days. The percentage reduction in population (% activity) is determined by comparing the number of leaf hoppers on the treated plants with those on the untreated plants.

Myzus persicae = experiment: Systemic activity against Myzus persicae; conditions: roots of pea seedlings in 400 ppm spray mixture, 20° C., evaluated after 3 and 6 days, read-out: percentage reduction in population (% activity)
Method: Pea seedlings are infected with Myzus persicae, the roots of the plants are then placed into a spray mixture comprising 400 ppm of the active ingredient, and the plants are incubated at 20° C. The test is evaluated after 3 and 6 days. The percentage reduction in population (% activity) is determined by comparing the number of dead aphids on the treated plants with those on the untreated plants.

O=C(CC=C(F)F)OCCOc1ccc(Oc2ccccc2)cc1 [Compound 1.01, 2-(4-phenoxyphenoxy)ethyl-4,4-difluorobut-3-enoate]
> 80%: pest or weed control at 100 ppm (Ctenocephalides felis) | mortality at 10 ppm (Dermanyssus gallinae) | activity at 400 ppm (Tetranychus urticae) | pest or weed control at 400 ppm (Heliothis virescens) | activity at 400 ppm (Nephotettix cincticeps) | activity at 400 ppm (Myzus persicae)

O=C(CCCCCC=C(F)F)OCCOc1ccc(Oc2ccccc2)cc1 [Compound 3.01]
> 80%: pest or weed control at 100 ppm (Ctenocephalides felis) | activity at 400 ppm (Tetranychus urticae) | pest or weed control at 400 ppm (Heliothis virescens) | activity at 400 ppm (Nephotettix cincticeps)
